In ChEMBL document CHEMBL1145021, “First X-ray cocrystal structure of a bacterial FabH condensing enzyme and a small molecule inhibitor achieved using rational design and homology modeling” (J Med Chem, 2003):

Legend:
[1] = Inhibitory activity against Streptococcus pneumoniae Beta-ketoacyl-ACP synthase III (FabH) (initiator of the fatty acid synthesis)
[2] = Inhibitory activity against Escherichia coli Beta-ketoacyl-ACP synthase III (FabH) (initiator of the fatty acid synthesis)
[3] = Inhibitory activity against Streptococcus pneumoniae FabH (initiator of the fatty acid synthesis)
[4] = Inhibitory activity against Escherichia coli FabH (initiator of the fatty acid synthesis)
[5] = Inhibitory activity against Streptococcus pneumoniae Beta-ketoacyl-ACP synthase III (initiator of the fatty acid synthesis)
[6] = Inhibitory activity against Escherichia coli Beta-ketoacyl-ACP synthase III (initiator of the fatty acid synthesis)

SMILES	IC50 [1]	IC50 [2]	also measured
O=C(O)CCCCCCn1c(C(=O)O)cc2cc(OCc3c(Cl)cccc3Cl)ccc21	170 nM	2000 nM	
O=C(O)c1cc2cc(OCc3c(Cl)cccc3Cl)ccc2n1Cc1cc2c(cc1Cl)OCO2			IC50 [3]: 40 nM; IC50 [4]: 830 nM
O=C(O)CCCn1c(C(=O)O)cc2cc(OCc3c(Cl)cccc3Cl)ccc21	62 nM	1700 nM	
O=C(O)c1cc2cc(OCc3c(Cl)cccc3Cl)ccc2n1Cc1ccc(O)cc1			IC50 [3]: 53 nM; IC50 [4]: 2000 nM
O=C(O)Cn1c(C(=O)O)cc2cc(OCc3c(Cl)cccc3Cl)ccc21	1200 nM	78000 nM	
O=C(O)CCCCCn1c(C(=O)O)cc2cc(OCc3c(Cl)cccc3Cl)ccc21	140 nM		
O=C(CCCCCn1c(C(=O)O)cc2cc(OCc3c(Cl)cccc3Cl)ccc21)NS(=O)(=O)c1ccccc1	46 nM	4600 nM	
O=C(O)c1ccc(Cn2c(C(=O)O)cc3cc(OCc4c(Cl)cccc4Cl)ccc32)cc1			IC50 [5]: 200 nM; IC50 [6]: 2500 nM
